The values below come from patent US7842690B2, “Cyclic hydroxylamine as psychoactive compounds” (BTG International Limited, priority 2003, dated 2010).

What all share (type): in vivo
Experiment [1] relates to Male rats of the Wistar strain. Description: Reserpine-induced changes in open field behaviour. The conditions noted are these: reserpine 0.1 mg/kg SC daily for 14 days, acute 50 mg/kg IP 1 h prior to open field test, 5-min test, mean ± S.E.M. The method, then:
Rats treated with the compound of Example 1 were compared to either rats treated with the classical antidepressant, clomipramine or controls in the despair test (forced swim). The same groups were also tested for the reserpine-induced changes in open field behaviour.
Male rats of the Wistar strain (purchased from Charles River, Italy) weighing 220-240 g were used throughout all experiments. For at least 1 week prior to the experiment, the rats were housed four to a cage at a constant temperature of 21° C., and under a 12-h light/dark cycle (lights on between 08:00 and 20:00), with food and water available ad libitum.
An acute IP injection of clomipramine hydrochloride (50 mg/kg) or of the compound of Example 1 (0.2 and 0.5 mg/kg) or physiological saline was made in animals subjected to the reserpine-induced changes in the open field test (the injection was made together with the last reserpine administration, e.g. 1 h prior to the open field test).
All animals were gently manipulated by experienced facilities' keepers avoiding any environmental or physical stress. Rats subjected to drugs or physiological saline administration received an injection of a 1-mL standard volume of solution with a 23-gauge stainless steel needle of 31 mm length (for […]) or 21 mm length (for SC injections). The animals were randomly assigned to any treatment group and were used only once in the behavioural experiments.
Reserpine-induced changes in open field behaviour was studied according to the method described in Naunyn-Schmiedeberg's Arch. Pharmacol. 293: 109-114 (Vetulani et al., 1976). Reserpine (Sigma, USA) was dissolved in physiological saline and injected daily for 14 days at the dose of 0.1 mg/kg subcutaneously (SC). A period of 1 hour after the last injection of reserpine, animals were subjected to the open field test. This consisted of the measure of ambulation and rearing of the rat in a circular area divided into 17 equal sections and lighted by a centrally suspended lamp. The areas explored by the rat at least with anterior paws was recorded in 5 min test. The episodes of rearing towards the centre or the walls were also recorded in 5 min test.
All data were analysed using univariate random design analysis of variance (one-way ANOVA) and the post hoc Dunnett's test for multiple comparisons. A P-value of 0.05 or less was considered as indicative of a significant difference.

The test system of experiment [2] is Male rats of the Wistar strain. The experiment in a line: Despair test (forced swim). As to conditions: 50 mg/kg IP, injections 24, 5 and 1 hour prior to test, 5-min test, mean ± S.E.M.
In experiment [3] the test system is rats. The experiment in a line: Elevated plus maze (X-maze) in rats. The conditions noted are these: 5-min period. The text has this:
The X-maze is constructed from Perspex® and comprises four arms (2 open, 2 closed), each 50 cm long by 9.5 wide and 40 high (closed, arms only) connected by a centre square (9.5×9.5). The open arm has a small lip (3 mm) to assist in the retention of the rat on the arm. The apparatus was housed in a room under subdued lighting conditions.
This model is based on the observation of spontaneous activity of rodents placed in an aversive environment produced by height and often spaces. […] Anxiolytic drugs increase the exploratory activity and the number of entries into the open arms. Rats were allowed at least 1 hour to acclimatise to the environment before testing commenced. Drug treatments were given IP in a pseudo-random, blind design, 40 minutes before behavioural testing, as appropriate. Rats were placed onto the centre square of the X-maze facing a specified open arm, and its behaviour was recorded by remote video over a 5 minute experimental period. The behavioural parameters were subsequently assessed by technicians reviewing the videotape and included: entries into each arm type, time spent on each arm type, rearing, stretch attend postures and head dips.

The subject of the next experiment is mouse. The experiment in a line: Black and white box test (Example 14). The conditions noted are these: for Parameter 1: Latency L (initial movement from the white to the black area), Mean / Parameter 2: Time spent in White area (TW), Mean: 5-min recording; for Parameter 3: Transitions/5 min (T), Mean: transitions between the two compartments; for Parameter 4: Total Activity: Atot, Mean: white and black compartments. The method, then:
The characteristic action of anxiolytic agents is to cause a redistribution of exploratory activity and time spent in the white section.
Each mouse was placed into the centre of the white, brightly lit area bacldng the opening between the B/W compartments. Animals behaviour was recorded by a remote video camera for 5 minutes. The recordings were subsequently evaluated on the TV by two operators unaware of drug treatment. The following behavioural parameters were recorded: • a) the latency of the initial movement from the white to the black area: L (sec); • b) the time spent in the white area TW (sec); the time spent in the black area is calculated by the difference: […] (sec); • c) the number of transitions between the two compartments T (No./5 min); • d) the total activity in the white and black compartments, Atot (No./5 min); • e) the total activity in the white area throughout the time spent in the white area: • AtotW/TW (No./sec); • f) the total activity in the black area throughout the time spent in the black area: AtotB/TB (No./sec); • g) the total number of exploratory rearings: Rtot (No./5 min); • h) the total number of line crossings: Ctot (No./5 min); • i) the number of exploratory rearings in the white section RW/TW (No./sec); • j) the number of line crossings in the white section CW/TW (No./sec).
Each group was composed by 8 animals.

Another experiment deals with BKW male albino mice. Description: Black and white box test (Example 10). The conditions noted are these: 5-min period; for TB = time in white section: signed value.
Experiment [4] deals with rats. The experiment in a line: Escape deficit test (learned helplessness), antidepressant activity. The conditions noted are these: rats treated IP for 15 days, unavoidable stress 16 h and escape test 24 h after last dosing; out of 30 trials; dose not given. The method, then: The “Escape deficit” test that derives from the classic paradigm of “learned helplessness” was used, as described by Meloni et al. in Pharmacol. Biochem. Behav. 46, 423-6 (1993) and Gambarana et al. in Behav. Pharmacol. 6, 66-73 (1995) and Neuropsychopharmacol. 21, 247-57 (1999). Exposure to an unavoidable stress induces […], which, after 24 hours, makes the rats unable to escape from a nociceptive stimulus. Rats exposed to unavoidable stress make 0-5 escapes out of 30 trials, while naïve rats realise 26-30 escapes. Classical anti-depressives prevent the occurrence of the escape deficit after chronic treatment (15 days).
Rats were treated intra-peritoneally (IP) for 15 days, and then submitted to the unavoidable stress (16 hours after the last dosing) prior to being subjected to the escape test (24 hours after the last dosing).

Setting [5] is: IP 40 min before test, dose not given.
Setting [6] is: 1.25 mg/kg IP 40 min before test.
Where [7] appears, read: 0.125 mg/kg IP 40 min before test.
Setting [8] is: 0.1 mg/kg IP 40 min before test.

Where a name gives a salt, the structure may show the parent alone.

For the compound `CN(C)CCCN1c2ccccc2CCc2ccc(Cl)cc21` [Clomipramine, clomipramine hydrochloride, reference compound], in experiment [1], the “No. of Floor Units (ambulation)” value came out at 84.6 ± 8.1 and the “Rearing Episodes” value is reported as 2.4 ± 0.2. Besides, the “Duration of Immobility” value in experiment [2] was 105.95 ± 9.13.

As for `CN1C(=O)CN=C(c2ccccc2)c2cc(Cl)ccc21` [Diazepam], in the experiment with rats [3] (setting [5]), the “% time spent in open arms” value amounted to 25 ± 5% and the “No. of entries in open arms” value is 4 ± 0.6. Further, in the experiment with mouse (1.25 mg/kg), the “Parameter 5: Total Activity in white area: AtotW/TW, Mean” value (“Parameter 5: Total Activity” for short) is recorded as “.723 No./sec”; the “Parameter 6: Total Activity in black area: AtotB/TB, Mean” value (from here on “Parameter 6: Total Activity”) was “.723 No./sec”; the “Parameter 7: Rtot (total number of exploratory rearings), Mean” value (from here on “Parameter 7: Rtot”) came to 68.750 No./5 min; the “Parameter 8: Ctot (total number of line crossings), Mean” value (“Parameter 8: Ctot” below) stood at 144.375 No./5 min. Moreover, in the experiment with mouse (1.25 mg/kg), the “Parameter 9: RW/TW (exploratory rearings in the white section), Mean” value (shortened to “Parameter 9: RW/TW”) is on record as “.124 No./sec”; the “Parameter 10: CW/TW (line crossings in the white section), Mean” value (from here on “Parameter 10: CW/TW”) is reported as “.599 No./sec”; the “Parameter 1: Latency L (initial movement from the white to the black area), Mean” value (from here on “Parameter 1: Latency L”) was found to be 13.750 s; the “Parameter 2: Time spent in White area (TW), Mean” value (“Parameter 2: Time spent” for short) worked out at 97.750 s. Further, in the experiment on mouse (1.25 mg/kg), the “Parameter 3: Transitions/5 min (T), Mean” value stood at 13.375 No./5 min and the “Parameter 4: Total Activity: Atot, Mean” value worked out at 213.125 No./5 min. Also, in the experiment with BKW male albino mice (setting [6]), the “Atot = Total exploratory activity” value is “+46.7”, the “CB/TB = crossings in the white compartment/time in white” value is “+0.08”, the “CN/TN = crossings in the black compartment/time in black” value is “+0.1” and the “Ctot = total number of crossings” value is on record as “+30.7”. In addition, in the experiment on BKW male albino mice (setting [6]), the “FI = Initial potency” value is on record as “+12.7”, the “RB/TB = rearings in the white compartment/time in white” value is recorded as “+0.06”, the “RN/TN = rearings in the black compartment/time in black” value is “+0.09” and the “Rtot = Total number of rearings” value is “+21.2”. In the experiment on BKW male albino mice (setting [6]), the “TB = time in white section” value is listed as “+33.2”.

Take `ON1CCOCC1c1ccccc1` (centres unmarked) [Example P1, 3-phenylmorpholin-4-ol]: in the experiment on mouse (0.1 mg/kg), the “Parameter 5: Total Activity” value is listed as “.608 No./sec”; the “Parameter 6: Total Activity” value is “.652 No./sec”; the “Parameter 7: Rtot” value came out at 60.375 No./5 min; the “Parameter 8: Ctot” value is recorded as 137.000 No./5 min. In addition, in the experiment with mouse (0.1 mg/kg), the “Parameter 9: RW/TW” value is listed as “.155 No./sec”; the “Parameter 10: CW/TW” value is recorded as “.454 No./sec”; the “Parameter 1: Latency L” value was found to be 20.125 s; the “Parameter 2: Time spent” value turned out to be 116.750 s. In addition, in the experiment with mouse (0.1 mg/kg), the “Parameter 3: Transitions/5 min (T), Mean” value is recorded as 19.500 No./5 min and the “Parameter 4: Total Activity: Atot, Mean” value was 197.375 No./5 min.

As to `ON1CCOCC1Cc1ccccc1` (centres unmarked) [Example P2, 3-benzylmorpholin-4-ol], in the experiment on mouse (0.1 mg/kg), the “Parameter 5: Total Activity” value is recorded as “.519 No./sec”; the “Parameter 6: Total Activity” value is “.571 No./sec”; the “Parameter 7: Rtot” value worked out at 60.250 No./5 min; the “Parameter 8: Ctot” value came to 108.375 No./5 min. Further, in the experiment with mouse (0.1 mg/kg), the “Parameter 9: RW/TW” value is “.099 No./sec”; the “Parameter 10: CW/TW” value is reported as “.420 No./sec”; the “Parameter 1: Latency L” value is 19.625 s; the “Parameter 2: Time spent” value was determined as 59.250 s. Besides, in the experiment with mouse (0.1 mg/kg), the “Parameter 3: Transitions/5 min (T), Mean” value stood at 10.000 No./5 min and the “Parameter 4: Total Activity: Atot, Mean” value amounted to 168.625 No./5 min.

Consider `ON1CCCCC1c1ccccc1` (centres unmarked) [Example P5, 2-phenylpiperidin-1-ol], for which, in the experiment on mouse (0.1 mg/kg), the “Parameter 5: Total Activity” value is recorded as “.571 No./sec”; the “Parameter 6: Total Activity” value is given as “.708 No./sec”; the “Parameter 7: Rtot” value stood at 69.500 No./5 min; the “Parameter 8: Ctot” value is recorded as 127.500 No./5 min. In addition, in the experiment with mouse (0.1 mg/kg), the “Parameter 9: RW/TW” value is given as “.123 No./sec”; the “Parameter 10: CW/TW” value is on record as “.448 No./sec”; the “Parameter 1: Latency L” value is 20.625 s; the “Parameter 2: Time spent” value is 105.125 s. In addition, in the experiment on mouse (0.1 mg/kg), the “Parameter 3: Transitions/5 min (T), Mean” value was 14.750 No./5 min and the “Parameter 4: Total Activity: Atot, Mean” value is 197.000 No./5 min.

`ON1CCCCC1Cc1ccccc1` (centres unmarked) [Example P6, 2-benzylpiperidin-1-ol]: in the experiment with mouse (0.1 mg/kg), the “Parameter 5: Total Activity” value is “.705 No./sec”; the “Parameter 6: Total Activity” value was “.835 No./sec”; the “Parameter 7: Rtot” value was 75.625 No./5 min; the “Parameter 8: Ctot” value is recorded as 153.750 No./5 min. In the experiment on mouse (0.1 mg/kg), the “Parameter 9: RW/TW” value is recorded as “.190 No./sec”; the “Parameter 10: CW/TW” value is recorded as “.515 No./sec”; the “Parameter 1: Latency L” value amounted to 14.500 s; the “Parameter 2: Time spent” value worked out at 152.125 s. Besides, in the experiment with mouse (0.1 mg/kg), the “Parameter 3: Transitions/5 min (T), Mean” value worked out at 24.250 No./5 min and the “Parameter 4: Total Activity: Atot, Mean” value was determined as 229.375 No./5 min.

In the experiment with rats [4], “cis-1,2,3,4,5,6a,7,8,9,10a,10b-dodeca-1,4-oxazino-[3′,4′:2,3]benzo[d]isoxazol-4-one [Comparative Compound A]” gave a No. of escapes of 3.5 ± 0.9. Besides, in the experiment on rats [3] (setting [7]), the “% time spent in open arms” value came to 21 ± 11% and the “No. of entries in open arms” value stood at 3 ± 1.1. Further, in the experiment on BKW male albino mice (setting [8]), the “Atot = Total exploratory activity” value is on record as “+53.7”, the “CB/TB = crossings in the white compartment/time in white” value is on record as “+0.01”, the “CN/TN = crossings in the black compartment/time in black” value is “+0.08” and the “Ctot = total number of crossings” value is given as “+19.1”. In the experiment with BKW male albino mice (setting [8]), the “FI = Initial potency” value is given as “+8.1”, the “PT = Total passages through the partition” value was “+4.1”, the “RB/TB = rearings in the white compartment/time in white” value is “+0.04” and the “RN/TN = rearings in the black compartment/time in black” value is given as “+0.13”. In the experiment on BKW male albino mice (setting [8]), the “Rtot = Total number of rearings” value is “+23.9” and the “TB = time in white section” value was “+52.1”.
